Results on one compound are retold here after patent publication US20140004223A1, “MOUTH-MOISTENING GUM COMPOSITIONS AND PRODUCTS CONTAINING THE SAME” (Three Parkway North, priority 2010, published 2014).

One series can be described thus: water solubility. The format is physicochemical. The text has this: In some embodiments, one or more ingredients may be encapsulated with an encapsulating material can also modify the release profile of the ingredient.
Series [1] can be described thus: taste testing of synthetic compound versus plant extracts. The format is in vivo. Particulars: based on taste testing, compared with some comparable plant extracts. The text has this:
Synthetic (2E,5Z,8E)-deca-2,6,8-trienoic acid N-isobutyl amide, being more pure than botanical sources, can be distinguished to some extent based on taste sensations. Synthetic (2E,5Z,8E)-deca-2,6,8-trienoic acid N-isobutyl amide can have a purity of at least about 90 percent. In some embodiments, synthetic (2E,5Z,8E)-deca-2,6,8-trienoic acid N-isobutyl amide can provide relatively higher mouth-moistening relative to tingling or heating/cooling sensations, compared to, for example, equivalent amounts of spilanthol in jambu. […] In one embodiment a combination of synthetic (2E,5Z,8E)-deca-2,6,8-trienoic acid N-isobutyl amide and a affinin plant extract is used. For example, within the given range of 75 to 300 ppm the affinin compound, the amount of affinin active provided by synthetic (2E,5Z,8E)-deca-2,6,8-trienoic acid N-isobutyl amide can vary from 20 to 80 wt. % and the amount of (2E,5Z,8E)-deca-2,6,8-trienoic acid N-isobutyl amide provided by plant extract of Heliopsis Longipes can vary from 80 to 20 wt. %.

The structures appear in SMILES notation.

`C/C=C/C=C\CC/C=C/C(=O)NCC(C)C` [affinin compound, (2E,5Z,8E)-deca-2,6,8-trienoic acid N-isobutyl amide]: the water solubility result in the series “water solubility” is listed as “not water soluble”. Moreover, in series [1], the “taste profile / tingling” value is recorded as “a cleaner profile and/or less tingling”.
